Key:
INS-1 cells = test: Insulin secretion test on INS-1 cells; assay type: cell-based; details: Rattus norvegicus, INS1, test compound concentration 10^−5 M, read-out: INS-1 Test concentration 10^−5 M % (Sec INS, percentage of insulin secretion)
Source text: Insulin Secretion Test on INS-1 Cells
According to the method described in Endocrinology, 1992 vol. 130 (1) pp. 167-178
Sec INS corresponds to the percentage of insulin secretion.
C corresponds to the concentration of test compound according to the invention.

[1] = test system: isolated islets of Langerhans; test: Insulin secretion test on islets isolated from rats (static incubation, stimulation factor); assay type: cell-based; details: 90 minutes incubation, glucose 2.8 mM or 8 mM (not given), stimulates if factor >= 130%; for Isolated islets 10^−5 M (stimulation factor of insulin secretion): compound 10^−5 M; for Isolated islets 10^−7 M (stimulation factor of insulin secretion): compound 10^−7 M
Method: Insulin Secretion Test on Islets Isolated from Rats
The effect of the compounds on insulin secretion as a function of the glucose concentration was tested, in vitro, in isolated islets of Langerhans in static incubation.
The islets Langerhans obtained by digestion of exocrine pancreatic tissue with collagenase, followed by purification on a Ficoll gradient, are incubated for 90 minutes in the presence of two concentrations of glucose (2.8 mM or 8 mM), in the presence or absence of the chemical compound. The insulin secretion is assayed by RIA in the incubation medium.
The potential of the various chemical compounds to stimulate insulin secretion is estimated by calculating the stimulation factor*.
A compound stimulates insulin secretion if this factor is greater than or equal to 130% for a given dose of glucose.
G=insulin secretion (pmol/min. islet) in the presence of glucose alone
G+P=insulin secretion (pmol/min. islet) in the presence of the same concentration of glucose and of the test compound.

n0-STZ/sucrose rats = test: In vivo oral glucose tolerance test (OGTT) after daily treatment for 7 days; design: species or system Rats Wistar; details: 100 mg/kg/day for 7 days
Method: To evaluate the effect of 2-{2-[4-(4-chlorobenzenesulfonylamino)phenyl]-ethyl}benzoic acid (compound 522) on the glucose tolerance of n0-STZ/sucrose rats, after a daily treatment for 7 days.
Rats Wistar (origin: Charles River, France), which received an injection of streptozotocin (100 mg/kg i.v.) on the day of birth. On their arrival at the Research Centre, at seven weeks old:
• 9 rats were placed on a standard diet (A04, SAFE). • 19 rats were placed on a sucrose-rich diet (58% sucrose, SAFE).
After 2 months on the diet, the rats on the sucrose diet were divided randomly into 2 subgroups (control diabetic, treated diabetic).
The three groups were then treated daily for 7 days, with excipient (0.5% methylcellulose solution) for the control group (healthy animals) and the diabetic control group, or with product (compound 522, 100 mg/kg/day) for the third group.
Glucose Tolerance Test (OGTT):
After treatment for 7 days, the animals were fasted for 3 hours before the start of the test. Samples were taken from the tail of the conscious rats. The first blood sample was taken 10 minutes before the administration of glucose (2 g/kgbody weight/oral route). Blood was then taken 10, 20, 30, 45, 60, 90 and 120 minutes after the administration of glucose.
The glucose tolerance was evaluated by means of the ΔAUC glc, which represents the cumulative increase in glycaemia above the basal value over the 120 minutes of the test.
The insulin response to glucose was estimated by means of the ΔAUC Ins, which represents the cumulative increase in insulinaemia above the basal value over the 120 minutes of the test.

| Compound | activity at 10 µM (INS-1 cells) [%] | other results |
| --- | --- | --- |
| O=C(O)c1ccccc1CCc1ccccc1NS(=O)(=O)c1ccc(S(=O)(=O)c2ccccc2)s1 [Compound 650] | 139 |  |
| Cc1cc(C)c(S(=O)(=O)Nc2ccccc2CCCc2ccccc2C(=O)O)c(C)c1 [Compound 121] | 184 |  |
| CCS(=O)(=O)Nc1ccccc1CCCCCc1ccccc1C(=O)O [Compound 157] | 203 |  |
| CCC(C)(C)c1ccc(S(=O)(=O)Nc2ccccc2CCc2ccccc2C(=O)O)cc1 [Compound 654] | 148 |  |
| O=C(O)c1ccccc1CCCCCc1ccccc1NS(=O)(=O)c1ccccc1F [Compound 152] | 202 |  |
| CC(C)c1ccc(S(=O)(=O)Nc2ccccc2CCCCCc2ccccc2C(=O)O)cc1 [Compound 164] | 180 |  |
| O=C(O)c1ccccc1CCc1ccccc1NS(=O)(=O)/C=C/c1ccccc1 [Compound 639] | 144 |  |
| O=C(O)c1ccccc1CCCCCc1ccccc1NS(=O)(=O)c1cccc2cccnc12 [Compound 168] | 256 | Isolated islets 10^−5 M (stimulation factor of insulin secretion) [1]: +236%; Isolated islets 10^−7 M (stimulation factor of insulin secretion) [1]: +169% |
| COc1cc(C)c(S(=O)(=O)Nc2ccccc2CCCCCc2ccccc2C(=O)O)c(C)c1C [Compound 158] | 182 | Isolated islets 10^−5 M (stimulation factor of insulin secretion) [1]: +166%; Isolated islets 10^−7 M (stimulation factor of insulin secretion) [1]: +135% |
| Cc1ccc(S(=O)(=O)Nc2ccccc2CCCCCc2ccccc2C(=O)O)c(C)c1 [Compound 151] | 190 |  |
| CCCCc1ccc(S(=O)(=O)Nc2ccccc2CCc2ccccc2C(=O)O)cc1 [Compound 642] | 140 |  |
| Cc1ccc(S(=O)(=O)Nc2ccccc2CCCc2ccccc2C(=O)O)c(C)c1 [Compound 109] | 162 |  |
| CN(C)c1cccc2c(S(=O)(=O)Nc3ccccc3CCCCCc3ccccc3C(=O)O)cccc12 [Compound 159] | 269 |  |
| N#Cc1ccccc1S(=O)(=O)Nc1ccccc1CCc1ccccc1C(=O)O [Compound 655] | 147 |  |
| Cc1ccc(S(=O)(=O)Nc2ccccc2CCCCCc2ccccc2C(=O)O)cc1 [Compound 144] | 191 |  |
| O=C(O)c1ccccc1CCCc1ccccc1NS(=O)(=O)c1ccc2ccccc2c1 [Compound 117] | 175 |  |
| O=C(O)c1ccccc1CCc1ccc(NS(=O)(=O)c2ccc(Cl)cc2)cc1 [Compound 522, 2-{2-[4-(4-chlorobenzenesulfonylamino)phenyl]-ethyl}benzoic acid] |  | ΔAUC insulin, treated versus diabetic controls (in words) (n0-STZ/sucrose rats; OGTT 120 minutes): unchanged; ΔAUC glucose down by, treated rats compared with the diabetic controls (n0-STZ/sucrose rats; OGTT glucose 2 g/kg oral, 120 minutes, significant p<0.05): 21%; ΔAUC insulin (cumulative increase in insulinaemia above the basal value) (n0-STZ/sucrose rats; treated rats, OGTT 120 minutes, diabetic controls 11417+/−1440): 14494 ± 665 pmol·min; ΔAUC glucose (cumulative increase in glycaemia above the basal value) (n0-STZ/sucrose rats; treated rats, OGTT 120 minutes, diabetic controls 33306+/−1403): 26438 ± 2255 mg·min/dL |

Reference: patent US7816397B2, “Phenylcarboxylic acid derivatives and use thereof for the treatment of diabetes” (Merck Patent GmbH, priority 2004, dated 2010)
